Measured values reported in patent US20230074252A1, “DOSAGES AND METHODS FOR TREATING PULMONARY ARTERIAL HYPERTENSION WITH RODATRISTAT” (Altavant Sciences GmbH, priority 2020, published 2023).
“And” between values parts separate entries of the source, which are not always exact repeats. Identical values can stand only once.

How the values were obtained:
[1] = Stability in rat whole blood; format: in vitro ADME; settings: 2 μM, 15 min
Protocol: (§1) The metabolic stability of RVT-1201 was measured in vitro in hepatocytes, liver microsomes, lung microsomes, intestinal S9, lung S9, liver S9 and whole blood. The major metabolite detected in incubations with human hepatocytes was KAR5417 (KRS-02). RVT-1201 was rapidly metabolized to form KAR5417, with <5% remaining after a 2 h incubation. In heat deactivated rat hepatocytes, <5% RVT-1201 remained after 2 h incubation in the same study. Therefore, RVT-1201 metabolism (and KAR5417 formation) are not dependent on oxidative or conjugative enzymatic processes. Formation of KAR5417 from RVT-1201 is a de-esterification process, which implicates an esterase or esterases as the major mechanism. The enzyme(s) responsible for RVT-1201 metabolism to form KAR5417 has not been identified but are considered to be carboxylesterase(s). In addition, RVT-1201 metabolism and KAR5417 formation were investigated in rat and human whole blood(XT184028).

[2] = Stability in heat deactivated rat hepatocytes; format: in vitro ADME; settings: 2 h incubation
Protocol: as §1

P-gp = biological target: T1, P-gp (Homo sapiens, UniProt P08183); assay: Transporter inhibition, Caco-2 cells, digoxin probe; format: in vitro ADME; settings: for Potential for interaction? (transporter inhibitor), P-gp: predicted @ 600 mg BID
T1 construct: endogenous in cells; host or cells: Caco-2
Protocol: The competitive inhibition of specific transporters was investigated for RVT-1201 and KAR5417 in transporter-expressing in vitro systems (XT158039). Inhibition of P-gp was evaluated using a Caco-2 cell line with digoxin as probe substrate. Inhibition of OATP1B1 and OATP1B3 was evaluated using a HEK293 cell line expressing these transporters with estradiol-17β-glucuronide as probe substrate. In addition, inhibition of other transporters was also investigated (BCRP, OAT1, OAT3, OCT2, MATE1, MATE2-K). The IC50 estimates for P-gp (RVT-1201) and OATP1B1/3 (RVT-1201 and KAR5417) supported further evaluation of inhibition DDI potential using the PBPK model. For each IC50 estimate, substrate concentration and Km were used to estimate RVT-1201 and KAR5417 Ki with Equation 1 (Cheng and Prusoff, 1973).

[3] = Metabolic stability in human hepatocytes; format: in vitro ADME; settings: 2 h incubation
Protocol: as §1

[4] = Intrinsic clearance in liver S9 fractions; format: in vitro ADME; settings: human, liver S9 fraction
Protocol: as §1
However, in human whole blood incubations, no loss of RVT-1201 was observed. […] Therefore, metabolism of RVT-1201 was assigned to a cytosolic carboxylesterase (CES1) within the PBPK model. Although the enzyme responsible for RVT-1201 elimination and KAR5417 formation has not been identified, CES1 was selected to represent the enzymatic metabolism of RVT-1201 for this fit-for-purpose PBPK model.

[5] = Passive permeability in Caco 2 and MDCK cell studies; format: in vitro ADME
Text: (§2) Consequently, the elimination of rodatristat into bile may be impacted by co-administration with agents that are BCRP inhibitors.

MATE1 = biological target: T2, MATE1 (Homo sapiens, UniProt Q96FL8); assay: In vitro transporter substrate assessment; format: in vitro ADME
T2 sequence (Q96FL8 1-570): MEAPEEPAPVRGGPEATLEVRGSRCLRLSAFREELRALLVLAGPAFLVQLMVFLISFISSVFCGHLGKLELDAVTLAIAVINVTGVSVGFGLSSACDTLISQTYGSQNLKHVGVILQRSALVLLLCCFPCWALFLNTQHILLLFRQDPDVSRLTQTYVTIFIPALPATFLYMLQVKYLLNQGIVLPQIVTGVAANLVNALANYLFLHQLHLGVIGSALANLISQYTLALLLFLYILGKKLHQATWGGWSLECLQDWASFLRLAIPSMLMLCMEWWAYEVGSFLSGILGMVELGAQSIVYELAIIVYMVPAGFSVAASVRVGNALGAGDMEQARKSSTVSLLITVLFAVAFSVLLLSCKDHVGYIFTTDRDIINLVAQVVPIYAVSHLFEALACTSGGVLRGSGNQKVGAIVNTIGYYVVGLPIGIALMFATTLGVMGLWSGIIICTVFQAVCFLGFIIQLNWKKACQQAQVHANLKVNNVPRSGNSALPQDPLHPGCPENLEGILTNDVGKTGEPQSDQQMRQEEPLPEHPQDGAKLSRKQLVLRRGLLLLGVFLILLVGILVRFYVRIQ
Text: as §2

CYP2C8 = biological target: T3, CYP2C8 (Homo sapiens, UniProt P10632); assay: Unbound hepatic portal vein Cmax versus Ki analysis (Walsky et al); set-up: from tissue; host or cells: pooled human liver microsomes (n=200 donors)
T3 sequence (P10632 1-490): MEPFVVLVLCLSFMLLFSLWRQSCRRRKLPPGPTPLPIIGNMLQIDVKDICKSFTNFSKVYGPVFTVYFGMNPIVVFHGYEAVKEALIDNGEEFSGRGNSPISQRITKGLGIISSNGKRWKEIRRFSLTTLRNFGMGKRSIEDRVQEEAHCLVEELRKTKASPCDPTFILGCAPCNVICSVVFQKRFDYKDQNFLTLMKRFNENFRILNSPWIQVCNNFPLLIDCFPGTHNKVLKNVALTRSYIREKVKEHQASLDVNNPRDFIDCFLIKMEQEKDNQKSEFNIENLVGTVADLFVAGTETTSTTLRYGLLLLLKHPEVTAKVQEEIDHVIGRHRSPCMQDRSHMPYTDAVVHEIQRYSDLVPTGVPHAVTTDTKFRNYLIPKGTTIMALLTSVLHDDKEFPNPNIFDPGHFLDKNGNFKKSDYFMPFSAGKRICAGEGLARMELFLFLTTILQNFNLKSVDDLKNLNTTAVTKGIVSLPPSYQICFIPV
Text: Walsky, et al^i evaluated criteria to assess the potential for approved drugs to elicit clinically-meaningful drug interactions via inhibition of 2C8. Following their evaluation of 209 compounds they opined that unbound hepatic portal vein concentration (Cmax, u, portal) compared to the in vitro Ki provides additional insight beyond peripheral Cmax (used for FDA criteria) as it reflects the unbound drug concentration entering the liver.
Calculation of Cmax, u, portal uses plasma Cmax, fraction of an oral dose absorbed (Fa) and measured unbound fraction in blood. For rodatristat, experimentally derived values were used for Fa determined in a rat 14C study (20%) and in vitro binding to human plasma (99.1%) and blood:plasma distribution (RB, 0.72). Walsky et al proposed a threshold where the ratio of Cmax, u, portal/Ki of <0.1 is associated with low risk. […] In the rat, the RE:R is ˜3-fold higher in portal blood compared to the periphery.

T1 sequence (P08183 whole entry): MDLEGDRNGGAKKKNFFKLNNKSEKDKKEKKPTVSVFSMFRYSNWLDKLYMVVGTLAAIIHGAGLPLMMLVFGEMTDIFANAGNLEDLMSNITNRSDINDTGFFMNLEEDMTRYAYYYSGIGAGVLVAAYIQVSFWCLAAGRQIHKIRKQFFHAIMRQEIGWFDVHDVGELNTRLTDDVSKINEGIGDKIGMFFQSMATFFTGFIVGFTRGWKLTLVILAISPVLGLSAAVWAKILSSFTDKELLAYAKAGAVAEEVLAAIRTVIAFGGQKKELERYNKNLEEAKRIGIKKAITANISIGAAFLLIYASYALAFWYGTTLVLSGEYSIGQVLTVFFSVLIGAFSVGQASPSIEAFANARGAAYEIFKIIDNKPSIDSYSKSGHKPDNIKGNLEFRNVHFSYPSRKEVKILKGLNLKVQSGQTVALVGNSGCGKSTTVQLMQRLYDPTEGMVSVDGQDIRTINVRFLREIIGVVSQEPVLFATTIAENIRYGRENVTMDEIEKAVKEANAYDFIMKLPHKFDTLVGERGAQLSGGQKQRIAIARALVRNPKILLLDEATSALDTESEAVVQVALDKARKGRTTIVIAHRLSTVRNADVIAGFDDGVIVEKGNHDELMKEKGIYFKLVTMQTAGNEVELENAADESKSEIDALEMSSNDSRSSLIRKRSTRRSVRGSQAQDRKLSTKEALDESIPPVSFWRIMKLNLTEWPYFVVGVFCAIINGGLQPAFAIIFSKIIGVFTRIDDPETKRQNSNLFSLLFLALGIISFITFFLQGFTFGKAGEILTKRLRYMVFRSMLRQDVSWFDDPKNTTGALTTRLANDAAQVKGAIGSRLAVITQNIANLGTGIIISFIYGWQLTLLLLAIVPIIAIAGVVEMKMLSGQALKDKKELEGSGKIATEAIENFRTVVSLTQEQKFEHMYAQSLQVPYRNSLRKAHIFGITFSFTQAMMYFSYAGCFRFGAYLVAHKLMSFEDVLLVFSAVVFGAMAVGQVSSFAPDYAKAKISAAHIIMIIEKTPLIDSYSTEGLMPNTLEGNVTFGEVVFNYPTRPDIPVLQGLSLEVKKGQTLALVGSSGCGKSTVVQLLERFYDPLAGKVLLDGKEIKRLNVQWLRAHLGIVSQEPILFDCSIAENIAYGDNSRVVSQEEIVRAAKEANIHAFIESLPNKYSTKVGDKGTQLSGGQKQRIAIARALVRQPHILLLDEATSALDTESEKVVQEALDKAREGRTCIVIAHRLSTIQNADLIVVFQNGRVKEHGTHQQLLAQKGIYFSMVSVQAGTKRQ

| Compound | Loss in rat blood [1] | Remaining after incubation in heat deactivated rat hepatocytes [2] [%] | IC50 (P-gp; Caco 2 cells, read-out: In vitro IC50, P-gp) [µM] | Potential for interaction? (transporter inhibitor), P-gp (P-gp) | Remaining after incubation with human hepatocytes [3] [%] | microsomal CLint [4] [µL/min/mg] | Passive permeability [5] | In vitro substrate? MATE1 (MATE1) | Inhibition of P-gp (in words) (P-gp) | Cmax, u, portal/Ki (CYP2C8) |
| --- | --- | --- | --- | --- | --- | --- | --- | --- | --- | --- |
| CCOC(=O)[C@@H]1CC2(CCN(c3cc(O[C@H](c4ccc(Cl)cc4-c4ccccc4)C(F)(F)F)nc(N)n3)CC2)CN1 [Rodatristat ethyl, (S)-ethyl 8-(2-amino-6-((R)-1-(5-chloro-[1,1′-biphenyl]-2-yl)-2,2,2-trifluoroethoxy)pyrimidin-4-yl)-2,8-diazaspiro[4.5]decane-3-carboxylate] | Complete loss | < 5 | 3.32 | Yes | < 5 | 20 |  |  |  |  |
| Nc1nc(O[C@H](c2ccc(Cl)cc2-c2ccccc2)C(F)(F)F)cc(N2CCC3(CC2)CN[C@H](C(=O)O)C3)n1 [Rodatristat, (S)-8-(2-amino-6-((R)-1-(5-chloro-[1,1′-biphenyl]-2-yl)-2,2,2-trifluoroeth-oxy)pyrimidin-4-yl)-2,8-diazaspiro[4.5]decane-3-carboxylic acid] |  |  |  | No |  |  | very low passive permeability | not an in vitro substrate and No | not an inhibitor | 0.128 and < 0.128 |
